Data reported in the supplement of paper PMC10307832.

Legend:
Assay in all cases: relative viability (nuclei count vs DMSO), 5 days (fraction); higher = more cells survive
Everolimus + Bortezomib = compound: CO[C@H]1C[C@@H]2CC[C@@H](C)[C@@](O)(O2)C(=O)C(=O)N2CCCC[C@H]2C(=O)O[C@H]([C@H](C)C[C@@H]2CC[C@@H](OCCO)[C@H](OC)C2)CC(=O)[C@H](C)/C=C(\C)[C@@H](O)[C@@H](OC)C(=O)[C@H](C)C[C@H](C)/C=C/C=C/C=C/1C [Everolimus] + CC(C)C[C@H](NC(=O)[C@H](Cc1ccccc1)NC(=O)c1cnccn1)B(O)O [Bortezomib] (partner 0.002 µM)
How it was run: (§1)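 Medians of duplicate plates are given as relative viability. That measure is the nuclei count in treated wells divided by the count in vehicle wells. Counts were taken on 4× images of lung cancer cell lines in 1536-well plates, 5 days after pin-tool dosing the day after seeding with one drug alone or a fixed anchor-drug dose plus five library-drug doses (not always all listed) in √10 steps.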

Everolimus + Tozasertib = compound: CO[C@H]1C[C@@H]2CC[C@@H](C)[C@@](O)(O2)C(=O)C(=O)N2CCCC[C@H]2C(=O)O[C@H]([C@H](C)C[C@@H]2CC[C@@H](OCCO)[C@H](OC)C2)CC(=O)[C@H](C)/C=C(\C)[C@@H](O)[C@@H](OC)C(=O)[C@H](C)C[C@H](C)/C=C/C=C/C=C/1C [Everolimus] + Cc1cc(Nc2cc(N3CCN(C)CC3)nc(Sc3ccc(NC(=O)C4CC4)cc3)n2)n[nH]1 [Tozasertib] (partner 0.1 µM)
How it was run: as §1

Everolimus + AZD7762 = compound: CO[C@H]1C[C@@H]2CC[C@@H](C)[C@@](O)(O2)C(=O)C(=O)N2CCCC[C@H]2C(=O)O[C@H]([C@H](C)C[C@@H]2CC[C@@H](OCCO)[C@H](OC)C2)CC(=O)[C@H](C)/C=C(\C)[C@@H](O)[C@@H](OC)C(=O)[C@H](C)C[C@H](C)/C=C/C=C/C=C/1C [Everolimus] + NC(=O)Nc1cc(-c2cccc(F)c2)sc1C(=O)N[C@H]1CCCNC1 [AZD7762] (partner 0.2 µM)
How it was run: as §1

Everolimus + Decitabine = compound: CO[C@H]1C[C@@H]2CC[C@@H](C)[C@@](O)(O2)C(=O)C(=O)N2CCCC[C@H]2C(=O)O[C@H]([C@H](C)C[C@@H]2CC[C@@H](OCCO)[C@H](OC)C2)CC(=O)[C@H](C)/C=C(\C)[C@@H](O)[C@@H](OC)C(=O)[C@H](C)C[C@H](C)/C=C/C=C/C=C/1C [Everolimus] + Nc1ncn([C@H]2C[C@H](O)[C@@H](CO)O2)c(=O)n1 [Decitabine] (partner 2 µM)
How it was run: as §1

| Cell Line | relative viability (Everolimus + Bortezomib; first compound 0.01 µM) | relative viability (Everolimus + Bortezomib; first compound 0.03162 µM) | relative viability (Everolimus + Bortezomib; first compound 0.1 µM) | relative viability (Everolimus + Bortezomib; first compound 0.3162 µM) | relative viability (Everolimus + Bortezomib; first compound 1 µM) | relative viability (Everolimus + Tozasertib; first compound 0.01 µM) | relative viability (Everolimus + Tozasertib; first compound 0.03162 µM) | relative viability (Everolimus + Tozasertib; first compound 0.1 µM) | relative viability (Everolimus + Tozasertib; first compound 0.3162 µM) | relative viability (Everolimus + Tozasertib; first compound 1 µM) | relative viability (Everolimus + AZD7762; first compound 0.01 µM) | relative viability (Everolimus + AZD7762; first compound 0.03162 µM) | relative viability (Everolimus + AZD7762; first compound 0.1 µM) | relative viability (Everolimus + AZD7762; first compound 0.3162 µM) | relative viability (Everolimus + AZD7762; first compound 1 µM) | relative viability (Everolimus + Decitabine; first compound 0.01 µM) | relative viability (Everolimus + Decitabine; first compound 0.03162 µM) | relative viability (Everolimus + Decitabine; first compound 0.1 µM) | relative viability (Everolimus + Decitabine; first compound 0.3162 µM) | relative viability (Everolimus + Decitabine; first compound 1 µM) |
| --- | --- | --- | --- | --- | --- | --- | --- | --- | --- | --- | --- | --- | --- | --- | --- | --- | --- | --- | --- | --- |
| NCI-H1755 | 0.785 | 0.492 | 0.736 | 0.723 | 0.714 | 0.594 | 0.488 | 0.538 | 0.525 | 0.425 | 0.379 | 0.39 | 0.382 | 0.344 | 0.345 | 0.582 | 0.56 | 0.489 | 0.52 | 0.534 |
| NCI-H1437 | 0.443 | 0.505 | 0.342 | 0.302 | 0.413 | 0.421 | 0.51 | 0.411 | 0.403 | 0.361 | 1.1 | 1.11 | 1.1 | 0.997 | 0.875 | 0.597 | 0.483 | 0.59 | 0.461 | 0.466 |
| NCI-H2085 | 0.956 | 0.827 | 0.726 | 0.805 | 0.711 | 0.81 | 0.723 | 0.602 | 0.656 | 0.557 | 0.808 | 0.753 | 0.45 | 0.654 | 0.481 | 0.508 | 0.536 | 0.483 | 0.478 | 0.395 |
| H3255 | 0.518 | 0.458 | 0.359 | 0.394 | 0.44 | 0.597 | 0.55 | 0.412 | 0.462 | 0.402 | 0.74 | 0.562 | 0.595 | 0.632 | 0.509 | 0.409 | 0.433 | 0.322 | 0.371 | 0.315 |
| NCI-H650 | 0.649 |  | 0.556 | 0.571 | 0.458 | 0.738 |  | 0.604 | 0.589 | 0.45 | 0.711 | 0.737 | 0.755 | 0.531 | 0.69 | 0.316 | 0.287 | 0.335 | 0.281 | 0.318 |
| LCLC-103H | 1.06 | 1.01 | 1.02 | 1.07 | 0.749 | 0.459 | 0.451 | 0.4 | 0.446 | 0.322 | 0.561 | 0.671 | 0.629 | 0.673 | 0.608 | 0.682 | 0.682 | 0.633 | 0.58 | 0.653 |
| LOU-NH91 | 0.504 | 0.521 | 0.488 | 0.521 | 0.518 | 0.637 | 0.608 | 0.63 | 0.609 | 0.656 | 0.651 | 0.654 | 0.621 | 0.645 | 0.647 | 0.718 | 0.76 | 0.702 | 0.699 | 0.686 |
| NCI-H3122 | 1.05 | 1.16 | 1.06 | 1.08 | 1.01 | 0.417 | 0.517 | 0.421 | 0.439 | 0.363 | 0.75 | 0.765 | 0.711 | 0.629 | 0.725 | 0.267 | 0.253 | 0.213 | 0.215 | 0.203 |
| PC-3 [JPC-3] | 0.703 | 0.798 | 0.846 | 0.774 | 0.889 | 0.927 | 0.806 | 0.849 | 0.868 | 0.873 | 0.58 | 0.499 | 0.615 |  | 0.647 | 0.813 | 0.794 | 0.687 |  | 0.802 |
| NCI-H1651 | 0.766 | 0.66 | 0.8 | 0.731 | 0.564 | 0.616 | 0.542 | 0.383 | 0.485 | 0.366 | 0.197 | 0.218 | 0.224 | 0.208 | 0.231 | 0.532 | 0.383 | 0.464 | 0.489 | 0.484 |
| NCI-H2087 | 0.699 | 0.957 | 0.625 | 0.75 | 0.837 | 0.256 | 0.199 | 0.198 | 0.218 | 0.174 | 1.25 | 1.51 | 1.2 | 1.36 | 1.35 | 0.229 | 0.205 | 0.2 | 0.198 | 0.257 |
